Source: PMC6891749, “[b]-Annulated Halogen-Substituted Indoles as Potential DYRK1A Inhibitors” (Molecules, 2019)
Values after ≈ are worked out from the molar mass of the structure shown. Structures can show the parent of a compound that is named as a salt. Where two headings read alike, the source gives them in different places.

Legend:
RnDYRK1A-kd = RnDYRK1A-kd (Rattus norvegicus, UniProt Q63470); assay: ADP-Glo luminescent kinase assay; format: biochemical, Rn; details: for DYRK1A inhibitory activity (in words): ADP-Glo assay
Protocol: (§1) Protein kinase assays with the derivatives 11–15 were carried out by radiometric methods using protein kinases, reagents, and conditions as described before. The DYRK1A inhibitory activities of the Mannich bases 16, 27 and 28 were assayed in 384-well plates using the ADP-GloTM assay kit (Promega, Madison, WI) according to the recommendations of the manufacturer. This assay is a luminescent ADP detection assay that provides a homogeneous and high-throughput screening method to measure kinase activity by quantifying the amount of ADP produced during a kinase reaction. Briefly, the reactions were carried out in a final volume of 6 µL for 30 min at 30 °C in appropriate kinase buffer, with either protein or peptide as substrate in the presence of 10 µM ATP. After that, 6 µL of ADP-GloTM Kinase Reagent was added to stop the kinase reaction. After an incubation time of 50 min at room temperature (rt), 12 µL of Kinase Detection Reagent was added for one hour at rt. The transmitted signal was measured using the Envision (PerkinElmer, Waltham, MA) microplate luminometer and expressed in Relative Light Units (RLU). In order to determine the half maximal inhibitory concentration (IC50), the assays were performed in duplicate in the absence or presence of increasing doses of the tested compounds. Kinase activities are expressed in % of maximal activity, i.e. measured in the absence of inhibitor. The peptide substrate was obtained from Proteogenix (Schiltigheim, France). RnDYRK1A-kd was assayed in buffer A with 0.033 μg/µl of the peptide […] as substrate (buffer A: 10 mM MgCl2, 1 mM EGTA, 1 mM DTT, 25 mM Tris-HCl pH 7.5, 50 µg/mL heparin). All data points for construction of dose response curves were recorded in triplicate. Typically, the standard deviation of single data points was below 10%.

DYRK1A [1] = biological target: T1, DYRK1A (Homo sapiens, UniProt Q13627); parameters: method as in PMID 25264830, PMID 27766861; details: cited from earlier work
DYRK1B = system: DYRK1B; parameters: method as in PMID 25264830, PMID 27766861; details: cited from earlier work
CDK1 [2] = assay: Protein kinase assay, radiometric; format: biochemical; details: dose response curves, triplicates
Protocol: (§2) The new compounds 11–16 were tested on an array of protein kinases of the CMGC family. First, the kinases were incubated with 10 µM solutions of the test compounds and the residual activities compared to controls were measured. The IC50 values of promising compounds were then determined from concentration-response curves (Table 1).
as §1

CDK2 = CDK2 (Homo sapiens, UniProt P24941); assay: Protein kinase assay, radiometric; format: biochemical; details: dose response curves, triplicates
Protocol: as §2, §1

CDK5 = CDK5 (Homo sapiens, UniProt Q00535); assay: Protein kinase assay, radiometric; format: biochemical; details: dose response curves, triplicates
CDK5, sequence (Q00535 whole entry, species assumed): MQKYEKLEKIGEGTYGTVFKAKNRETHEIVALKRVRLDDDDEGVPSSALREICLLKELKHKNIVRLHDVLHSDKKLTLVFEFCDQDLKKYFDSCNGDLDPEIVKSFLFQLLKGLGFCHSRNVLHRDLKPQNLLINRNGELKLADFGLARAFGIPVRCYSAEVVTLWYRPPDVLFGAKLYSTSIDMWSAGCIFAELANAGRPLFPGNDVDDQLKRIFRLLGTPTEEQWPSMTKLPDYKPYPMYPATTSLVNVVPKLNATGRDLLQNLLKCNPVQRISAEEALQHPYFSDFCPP
CDK5, sequence (Q15078 99-307 partner limits assumed, species assumed): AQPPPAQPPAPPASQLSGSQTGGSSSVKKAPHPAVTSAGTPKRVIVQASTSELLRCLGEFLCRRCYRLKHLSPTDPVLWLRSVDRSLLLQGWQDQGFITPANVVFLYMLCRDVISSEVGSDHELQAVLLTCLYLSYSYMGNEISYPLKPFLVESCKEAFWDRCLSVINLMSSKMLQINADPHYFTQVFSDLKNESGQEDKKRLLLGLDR
Protocol: as §2, §1

CDK9 = CDK9 (Homo sapiens, UniProt P50750); assay: Protein kinase assay, radiometric; format: biochemical; details: dose response curves, triplicates
CDK9, sequence (P50750 whole entry, species assumed): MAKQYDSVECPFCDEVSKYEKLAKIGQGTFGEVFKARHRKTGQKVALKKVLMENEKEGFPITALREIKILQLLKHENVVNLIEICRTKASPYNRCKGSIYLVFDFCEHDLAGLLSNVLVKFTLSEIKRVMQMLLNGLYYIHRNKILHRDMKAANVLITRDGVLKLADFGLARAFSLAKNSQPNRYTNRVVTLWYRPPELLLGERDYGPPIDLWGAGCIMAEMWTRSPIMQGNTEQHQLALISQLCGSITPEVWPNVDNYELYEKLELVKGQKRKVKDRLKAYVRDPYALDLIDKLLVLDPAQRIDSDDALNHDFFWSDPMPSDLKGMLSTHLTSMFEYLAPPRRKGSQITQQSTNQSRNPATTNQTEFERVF
CDK9, sequence (O60563 whole entry partner, species assumed): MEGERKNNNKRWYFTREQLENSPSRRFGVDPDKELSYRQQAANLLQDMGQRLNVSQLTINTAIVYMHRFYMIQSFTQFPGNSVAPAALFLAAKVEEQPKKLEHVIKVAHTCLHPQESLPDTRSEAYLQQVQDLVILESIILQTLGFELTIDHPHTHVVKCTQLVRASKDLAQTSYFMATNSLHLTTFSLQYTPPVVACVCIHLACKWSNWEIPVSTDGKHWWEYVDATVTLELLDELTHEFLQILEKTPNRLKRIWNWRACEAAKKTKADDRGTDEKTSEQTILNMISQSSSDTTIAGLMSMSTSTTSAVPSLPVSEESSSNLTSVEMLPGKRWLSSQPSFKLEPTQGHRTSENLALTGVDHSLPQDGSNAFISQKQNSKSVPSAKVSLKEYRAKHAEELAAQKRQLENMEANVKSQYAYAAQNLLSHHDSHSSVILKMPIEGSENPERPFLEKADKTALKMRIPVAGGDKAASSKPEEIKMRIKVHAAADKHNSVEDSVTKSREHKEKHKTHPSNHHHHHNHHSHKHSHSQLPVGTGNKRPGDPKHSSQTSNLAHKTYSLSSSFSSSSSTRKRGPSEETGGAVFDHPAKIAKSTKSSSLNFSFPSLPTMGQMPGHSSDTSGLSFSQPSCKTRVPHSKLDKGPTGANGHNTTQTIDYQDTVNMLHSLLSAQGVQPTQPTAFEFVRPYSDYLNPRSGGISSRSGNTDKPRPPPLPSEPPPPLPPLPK
Protocol: as §2, §1

CK1 = assay: Protein kinase assay, radiometric; format: biochemical; details: dose response curves, triplicates
Protocol: as §2, §1

CLK1 = CLK1 (Mus musculus, UniProt P22518); assay: Protein kinase assay, radiometric; format: biochemical; details: dose response curves, triplicates
CLK1, sequence (P22518 whole entry): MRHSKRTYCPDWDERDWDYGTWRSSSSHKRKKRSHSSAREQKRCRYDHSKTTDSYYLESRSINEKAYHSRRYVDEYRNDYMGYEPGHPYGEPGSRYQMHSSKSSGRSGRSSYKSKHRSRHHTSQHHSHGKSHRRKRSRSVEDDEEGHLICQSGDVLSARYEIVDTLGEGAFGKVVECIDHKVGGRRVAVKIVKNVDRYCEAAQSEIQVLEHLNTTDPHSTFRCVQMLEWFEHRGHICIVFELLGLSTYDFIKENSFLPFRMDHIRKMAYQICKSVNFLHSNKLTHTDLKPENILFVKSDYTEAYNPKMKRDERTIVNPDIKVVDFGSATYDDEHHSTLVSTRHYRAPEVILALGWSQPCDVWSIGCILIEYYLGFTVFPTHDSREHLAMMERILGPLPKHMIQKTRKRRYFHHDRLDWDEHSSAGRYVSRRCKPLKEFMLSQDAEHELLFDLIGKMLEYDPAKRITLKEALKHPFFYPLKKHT
Protocol: as §2, §1

DYRK1A [3] = biological target: T1, DYRK1A; assay: Protein kinase assay, radiometric; format: biochemical; details: dose response curves, triplicates
Protocol: as §2, §1

GSK-3 = assay: Protein kinase assay, radiometric; format: biochemical; details: dose response curves, triplicates
Protocol: as §2, §1

[4] = Thermodynamic solubility, shake-flask method with HPLC; format: physicochemical; details: aqueous phosphate buffer, thermodynamic from solid, phosphate buffer pH 7.4, shake-flask, 25 °C, mean value and range, read-out: Sexp., therm., pH 7.4 (thermodynamic solubility)
Protocol: For determination of thermodynamic solubility an aqueous phosphate buffer at pH 7.4 with sodium chloride was used. The buffer was prepared by dissolving Na2HPO4 × 2 H2O (298 mg), KH2PO4 (19 mg) and NaCl (800 mg) in water (100 mL). The pH was adjusted to 7.4 by addition of aq. hydrochloric acid (3 mol/L). The thermodynamic solubility was determined using a shake-flask method with quantification by a buffer-HPLC method. […] The mixtures were shaken at 25 °C and 400 rpm for 24 and 48 h (IKA KS 3000 ic control, IKA-Werke, Staufen, Germany). For each time (24 and 48 h) two independent measurements at two different detection wavelengths (254 and 280 nm) were determined. After 24 h and 48 h the mixtures were inspected for remaining solids. The concentrations in the resulting saturated solutions were quantified by isocratic HPLC with external standard calibration. […] For calibration, a stock solution of the test compounds in DMSO was prepared and diluted with DMSO to suitable concentrations. The AUC at the wavelength 254 nm and 280 nm was used for quantification.

[5] = Kinetic solubility, laser nephelometry; format: physicochemical; details: for solubility kinetic: aqueous phosphate buffer, aqueous buffer, kinetic from dmso stock, phosphate buffer pH 7.4, nephelometry, mean value and range, read-out: Sexp., kin., pH 7.4 (kinetic solubility)
Protocol: The kinetic solubility was determined using laser nephelometry. A stock solution based on the results of the thermodynamic solubility measurement of the test compounds in DMSO was prepared. The stock solution was diluted with DMSO to get different concentrations. The DMSO dilutions (5 µL) were placed on a 96-well plate filled with aqueous phosphate buffer pH 7.4 (195 µL, same buffer as for thermodynamic solubility). Two dilution series of the stock solution were measured. A blank was determined for every measurement. The well plate was scanned by a nephelometer (Nephelostar Plus, BMG Labtech, Ortenberg, Germany). Precipitated particles scatter the laser light which is detected by the nephelometer. The intensity of the scattered light is assumed to be proportional to the particle concentration in the suspension. The different concentrations were plotted versus the intensities measured by the nephelometer. The resulting kick-off curves led directly to the kinetic solubility by determining the intersection of the linear straight line paralleling the x axis and the linear slope.

CDK1 [6] = system: CDK1; parameters: method as in Falke et al. [34]; details: radiometric; ref Falke et al. [34]; cited from earlier work
MAO-A = system: MAO-A; parameters: method as in PMID 15010457, PMID 20981014; details: cited from earlier work

Row | SMILES | IC50 (CDK1 [2]) [nM] | IC50 (CDK2) [nM] | IC50 (CDK5) [nM] | IC50 (CDK9) [nM] | IC50 (CK1) [nM] | IC50 (CLK1) [nM] | IC50 (DYRK1A [3]) [nM] | IC50 (GSK-3) [nM] | other results
1 | CN(C)CC1CCc2[nH]c3c(Cl)cccc3c2C1=O (racemic) [compound 28, (R,S)-8-Chloro-3-[(dimethylamino)methyl]-1,2,3,9-tetrahydro-4H-carbazol-4-one hydrochloride] | – | – | – | – | – | – | – | – | DYRK1A inhibitory activity (in words) (RnDYRK1A-kd): inactive
2 | COC(=N)c1nc2ccc3ncnc(Nc4ccc(Cl)cc4Cl)c3c2s1 [compound 7] | – | – | – | – | – | – | – | – | Activity on DYRK1A (DYRK1A [1]): subnanomolar; Activity on DYRK1B (DYRK1B): subnanomolar
3 | O=C1NCCCc2[nH]c3c(Cl)cccc3c21 [compound 15, 7-Chloro-3,4,5,6-tetrahydroazepino[4,3-b]indol-1(2H)-one] | 7000 | 2500 | 2500 | 2200 | 4200 | 320 | 2200 | > 10000 | –
4 | O=C1c2c([nH]c3c(Cl)cccc23)CCC1CN1CCOCC1 (racemic) [compound 27, (R,S)-8-Chloro-3-(morpholinomethyl)-1,2,3,9-tetrahydro-4H-carbazol-4-one hydrochloride] | – | – | – | – | – | – | – | – | DYRK1A inhibitory activity (in words) (RnDYRK1A-kd): inactive
5 | O=C1CCCc2[nH]c3c(Cl)cccc3c21 [compound 13, 8-Chloro-1,2,3,9-tetrahydro-4H-carbazol-4-one] | – | – | 8200 | – | > 10000 | 300 | 1600 | 4400 | –
6 | O=C1c2c([nH]c3c(Cl)cccc23)CCC1CN1CCCCC1 (racemic) [compound 16, (R,S)-8-Chloro-3-(piperidin-1-ylmethyl)-1,2,3,9-tetrahydro-4H-carbazol-4-one hydrochloride] | – | – | – | – | – | – | – | – | DYRK1A inhibitory activity (in words) (RnDYRK1A-kd): complete loss of DYRK1A inhibitory activity; IC50 (RnDYRK1A-kd; ADP-Glo assay kit, 10 µM ATP, read-out: IC50 DYRK1A): > 10000 nM; solubility thermodynamic [4]: 13600 µM; solubility kinetic [5]: 2310 µM
7 | O=C1NCCc2[nH]c3c(Cl)cccc3c21 [compound 14, 6-Chloro-2,3,4,5-tetrahydro-1H-pyrido[4,3-b]indol-1-one] | 1200 | 1700 | 810 | 880 | 3600 | 120 | 190 | 2700 | –
8 | O=C1CCc2[nH]c3c(Cl)cccc3c21 [compound 12, 5-Chloro-3,4-dihydrocyclopenta[b]indol-1(2H)-one] | > 10000 | > 10000 | > 10000 | > 10000 | > 10000 | 890 | 710 | > 10000 | –
9 | O=C(O)c1nc2ccccc2c2[nH]c3c(I)cccc3c12 [compound 10, reference compound] | – | – | – | – | – | – | – | – | solubility thermodynamic [4]: < 5 µM; solubility kinetic [5]: 5.28 µM (≈ 2.05 µg/mL); IC50 (CDK1 [6]): > 10000 nM
10 | CCN1/C(=C/C(C)=O)Sc2ccc(O)cc21 [compound 4] | – | – | – | – | – | – | – | – | MAO-A inhibition (MAO-A): no MAO-A inhibition
11 | O=c1ccccc2[nH]c3c(Cl)cccc3c12 [compound 11, 4-Chlorocyclohepta[b]indol-10(5H)-one] | > 10000 | > 10000 | > 10000 | > 10000 | > 10000 | 170 | 200 | > 10000 | solubility thermodynamic [4]: < 5 µM; solubility kinetic [5]: 26.1 µM (≈ 5.99 µg/mL); Improvement of kinetic solubility compared to 10 ([5]; phosphate buffer pH 7.4): fivefold improved solubility
